Converted amounts (≈) assume the structure as drawn.
What was measured:
Type in all cases: functional
Klebsiella pneumoniae [1] = experiment: Antibacterial activity against extended-spectrum beta-lactamase producin Klebsiella pneumoniae 12-4 after 18 to 24 hrs by standard twofold serial dilution method
Pseudomonas aeruginosa [2] = experiment: Antibacterial activity against Pseudomonas aeruginosa 12-14 after 18 to 24 hrs by standard twofold serial dilution method
Escherichia coli [3] = experiment: Antibacterial activity against extended-spectrum beta-lactamase producing Escherichia coli 12-15 after 18 to 24 hrs by standard twofold serial dilution method
Streptococcus pneumoniae [4] = experiment: Antibacterial activity against Streptococcus pneumoniae 12-18 after 18 to 24 hrs by standard twofold serial dilution method
Escherichia coli [5] = experiment: Antibacterial activity against Escherichia coli 12-1 after 18 to 24 hrs by standard twofold serial dilution method
Klebsiella pneumoniae [6] = experiment: Antibacterial activity against Klebsiella pneumoniae 12-4 after 18 to 24 hrs by standard twofold serial dilution method
Klebsiella pneumoniae [7] = experiment: Antibacterial activity against extended-spectrum beta-lactamase producin Klebsiella pneumoniae 12-3 after 18 to 24 hrs by standard twofold serial dilution method
Klebsiella pneumoniae [8] = experiment: Antibacterial activity against extended-spectrum beta-lactamase producin Klebsiella pneumoniae 12-7 after 18 to 24 hrs by standard twofold serial dilution method
Escherichia coli [9] = experiment: Antibacterial activity against extended-spectrum beta-lactamase producing Escherichia coli 12-14 after 18 to 24 hrs by standard twofold serial dilution method
Klebsiella pneumoniae [10] = experiment: Antibacterial activity against extended-spectrum beta-lactamase producin Klebsiella pneumoniae 12-14 after 18 to 24 hrs by standard twofold serial dilution method
[11] = system: Staphylococcus epidermidis; experiment: Antibacterial activity against methicillin-resistant Staphylococcus epidermidis 12-6 after 18 to 24 hrs by standard twofold serial dilution method
Pseudomonas aeruginosa [12] = experiment: Antibacterial activity against Pseudomonas aeruginosa 12-12 after 18 to 24 hrs by standard twofold serial dilution method
[13] = system: Staphylococcus epidermidis; experiment: Antibacterial activity against methicillin-resistant Staphylococcus epidermidis 12-1 after 18 to 24 hrs by standard twofold serial dilution method
Escherichia coli [14] = experiment: Antibacterial activity against Escherichia coli ATCC 25922 after 18 to 24 hrs by standard twofold serial dilution method
Streptococcus pneumoniae [15] = experiment: Antibacterial activity against Streptococcus pneumoniae ATCC 49619 after 18 to 24 hrs by standard twofold serial dilution method
Staphylococcus aureus [16] = experiment: Antibacterial activity against methicillin-sensitive Staphylococcus aureus 12-1 after 18 to 24 hrs by standard twofold serial dilution method
Staphylococcus aureus [17] = experiment: Antibacterial activity against methicillin-resistant Staphylococcus aureus 12-2 after 18 to 24 hrs by standard twofold serial dilution method
[18] = system: Mycobacterium tuberculosis; experiment: Antimycobacterial activity against Mycobacterium tuberculosis H37Rv ATCC 27294 by MABA method
Staphylococcus aureus [19] = experiment: Antibacterial activity against methicillin-sensitive Staphylococcus aureus 12-2 after 18 to 24 hrs by standard twofold serial dilution method
Staphylococcus aureus [20] = experiment: Antibacterial activity against methicillin-resistant Staphylococcus aureus 12-4 after 18 to 24 hrs by standard twofold serial dilution method
Staphylococcus aureus [21] = experiment: Antibacterial activity against methicillin-sensitive Staphylococcus aureus 12-4 after 18 to 24 hrs by standard twofold serial dilution method
[22] = system: Staphylococcus epidermidis; experiment: Antibacterial activity against methicillin-sensitive Staphylococcus epidermidis 12-3 after 18 to 24 hrs by standard twofold serial dilution method
[23] = system: Staphylococcus epidermidis; experiment: Antibacterial activity against methicillin-sensitive Staphylococcus epidermidis 12-1 after 18 to 24 hrs by standard twofold serial dilution method
Klebsiella pneumoniae [24] = experiment: Antibacterial activity against Klebsiella pneumoniae 12-2 after 18 to 24 hrs by standard twofold serial dilution method
Klebsiella pneumoniae [25] = experiment: Antibacterial activity against Klebsiella pneumoniae 12-1 after 18 to 24 hrs by standard twofold serial dilution method
Escherichia coli [26] = experiment: Antibacterial activity against extended-spectrum beta-lactamase producing Escherichia coli 12-2 after 18 to 24 hrs by standard twofold serial dilution method
Staphylococcus aureus [27] = experiment: Antibacterial activity against Staphylococcus aureus ATCC 25923 after 18 to 24 hrs by standard twofold serial dilution method
[28] = system: Staphylococcus epidermidis; experiment: Antibacterial activity against methicillin-sensitive Staphylococcus epidermidis 12-6 after 18 to 24 hrs by standard twofold serial dilution method
Staphylococcus aureus [29] = experiment: Antibacterial activity against methicillin-sensitive Staphylococcus aureus 12-5 after 18 to 24 hrs by standard twofold serial dilution method
Escherichia coli [30] = experiment: Antibacterial activity against extended-spectrum beta-lactamase producing Escherichia coli 12-3 after 18 to 24 hrs by standard twofold serial dilution method
[31] = system: Staphylococcus epidermidis; experiment: Antibacterial activity against methicillin-sensitive Staphylococcus epidermidis 12-8 after 18 to 24 hrs by standard twofold serial dilution method
Staphylococcus aureus [32] = experiment: Antibacterial activity against methicillin-resistant Staphylococcus aureus 12-5 after 18 to 24 hrs by standard twofold serial dilution method

Row | SMILES | MIC (Klebsiella pneumoniae [1]) [µg/mL] | MIC (Pseudomonas aeruginosa [2]) [µg/mL] | MIC (Escherichia coli [3]) [µg/mL] | MIC (Streptococcus pneumoniae [4]) [µg/mL] | MIC (Escherichia coli [5]) [µg/mL] | MIC (Klebsiella pneumoniae [6]) [µg/mL] | MIC (Klebsiella pneumoniae [7]) [µg/mL] | MIC (Klebsiella pneumoniae [8]) [µg/mL] | MIC (Escherichia coli [9]) [µg/mL] | MIC (Klebsiella pneumoniae [10]) [µg/mL] | MIC [11] [µg/mL] | MIC (Pseudomonas aeruginosa [12]) [µg/mL] | MIC [13] [µg/mL] | MIC (Escherichia coli [14]) [µg/mL] | MIC (Streptococcus pneumoniae [15]) [µg/mL] | MIC (Staphylococcus aureus [16]) [µg/mL] | MIC (Staphylococcus aureus [17]) [µg/mL] | MIC [18] [µg/mL] | MIC (Staphylococcus aureus [19]) [µg/mL] | MIC (Staphylococcus aureus [20]) [µg/mL] | further results
1 | CCO/N=C1/CN(c2cc3c(cc2F)c(=O)c(C(=O)O)cn3[C@@H]2C[C@@H]2F)CC1CN (some centres undefined) | 8 (≈ 19 µM) | 1 (≈ 2.38 µM) | 128 (≈ 304 µM) | 0.25 (≈ 0.595 µM) | 0.5 (≈ 1.19 µM) | 0.25 (≈ 0.595 µM) | 16 (≈ 38.1 µM) | 1 (≈ 2.38 µM) | 16 (≈ 38.1 µM) | 32 (≈ 76.1 µM) | 1 (≈ 2.38 µM) | 0.25 (≈ 0.595 µM) | 1 (≈ 2.38 µM) | 0.06 (≈ 0.143 µM) | 0.03 (≈ 0.0714 µM) | 0.06 (≈ 0.143 µM) | 8 (≈ 19 µM) | 0.25 (≈ 0.595 µM) | 0.015 (≈ 0.0357 µM) | 8 (≈ 19 µM) | MIC (Staphylococcus aureus [21]): 0.06 µg/mL (≈ 0.143 µM); MIC [22]: 0.25 µg/mL (≈ 0.595 µM); MIC [23]: 0.06 µg/mL (≈ 0.143 µM); MIC (Klebsiella pneumoniae [24]): 0.25 µg/mL (≈ 0.595 µM); MIC (Klebsiella pneumoniae [25]): 0.25 µg/mL (≈ 0.595 µM); MIC (Escherichia coli [26]): 32 µg/mL (≈ 76.1 µM); MIC (Staphylococcus aureus [27]): < 8 ng/mL; MIC [28]: 0.06 µg/mL (≈ 0.143 µM); MIC (Staphylococcus aureus [29]): 0.06 µg/mL (≈ 0.143 µM); MIC (Escherichia coli [30]): 16 µg/mL (≈ 38.1 µM); MIC [31]: 0.5 µg/mL (≈ 1.19 µM); MIC (Staphylococcus aureus [32]): 8 µg/mL (≈ 19 µM)
2 | NCC1CN(c2cc3c(cc2F)c(=O)c(C(=O)O)cn3[C@@H]2C[C@@H]2F)C/C1=N/OCc1ccccc1 (some centres undefined) | 16 (≈ 33.2 µM) | 1 (≈ 2.07 µM) | 64 (≈ 133 µM) | 0.25 (≈ 0.518 µM) | 0.06 (≈ 0.124 µM) | 0.25 (≈ 0.518 µM) | 16 (≈ 33.2 µM) | 16 (≈ 33.2 µM) | 16 (≈ 33.2 µM) | 64 (≈ 133 µM) | 0.5 (≈ 1.04 µM) | 1 (≈ 2.07 µM) | 1 (≈ 2.07 µM) | 0.06 (≈ 0.124 µM) | 0.06 (≈ 0.124 µM) | 0.06 (≈ 0.124 µM) | 4 (≈ 8.29 µM) | 0.25 (≈ 0.518 µM) | < 0.008 | 8 (≈ 16.6 µM) | MIC (Staphylococcus aureus [21]): 0.06 µg/mL (≈ 0.124 µM); MIC [22]: 0.125 µg/mL (≈ 0.259 µM); MIC [23]: 0.125 µg/mL (≈ 0.259 µM); MIC (Klebsiella pneumoniae [24]): 0.25 µg/mL (≈ 0.518 µM); MIC (Klebsiella pneumoniae [25]): 0.06 µg/mL (≈ 0.124 µM); MIC (Escherichia coli [26]): 64 µg/mL (≈ 133 µM); MIC (Staphylococcus aureus [27]): < 8 ng/mL; MIC [28]: 0.06 µg/mL (≈ 0.124 µM); MIC (Staphylococcus aureus [29]): 0.06 µg/mL (≈ 0.124 µM); MIC (Escherichia coli [30]): 32 µg/mL (≈ 66.3 µM); MIC [31]: 0.125 µg/mL (≈ 0.259 µM); MIC (Staphylococcus aureus [32]): 4 µg/mL (≈ 8.29 µM)

From ChEMBL document CHEMBL3352227, “Synthesis, antimycobacterial and antibacterial evaluation of l-[(1R, 2S)-2-fluorocyclopropyl]fluoroquinolone derivatives containing an oxime functional moiety” (Eur J Med Chem, 2014)
